Reference: patent US20180149652A1, “ELECTRICAL CELL-SUBSTRATE IMPEDANCE SENSOR (ECIS)” (priority 2018, published 2018)

Tests used:
[1] = system: MCF-7 cells; experiment: SiNW-ECIS impedance and capacitance response of MCF-7 cells to antitubulin drugs; assay type: cell-based, human; conditions: MCF-7 on SiNW electrodes, PTX 0.1 nano-moles per liter; for normalized capacitance change versus control sample / normalized impedance change versus control sample: 2 hours (T1) after drug incubation; for normalized capacitance change versus control sample / normalized impedance change versus control sample / change in electrical impedance with respect to control sample / norm of capacitive changes, control sample more than drug value / change of norm in impedance of treated cells, T1 vs. T2: ABZ 2.1 nano-moles per liter; for change in electrical impedance with respect to control sample / norm of capacitive changes, control sample more than drug value: 6 hours (T2) after drug incubation
Experimental: In this example, the diagnostic response of cells membrane to extremely low dose of antitubulin drugs is investigated. Initially, MCF-7 cell lines, isolated from grade I human breast tumors, were obtained from the National Cell Bank of Iran (Pasteur Institute). Then, cells were maintained in a CO2 incubator (37° C., 5% CO2) in RPMI-1640 medium supplemented with 5% fetal bovine serum, and 1% penicillin/streptomycin. The fresh medium was replaced every other day. Then, the cultured cells were dropped on the surface of the SiNW-ECIS, designed and fabricated pursuant to teachings of the present application. Prior to each experiment, cells were trypsinized to be detached from the substrate and resuspended on the SiNW surface. To minimize the effect of trypsinization, the procedure may last for less than 4 minutes at room temperature of about 20° C. The samples were held in an incubator for about 4 hours to achieve cells attachment on the SiNWs. Thereafter, the ABZ drug with low concentrations of about 2.1 nano-moles per liter and the PTX drug with low concentrations of about 0.1 nano-moles per liter were added to individual samples. Finally, the signal recording and biological assays were investigated about 2 hours and 6 hours after the drug treatment (6 hours and 10 hours after the beginning of culturing process).
Referring to FIGS. 12A-12G, comparative normalized diagrams of impedance (designated by ΔZ% and represented by solid black lines) and capacitance changes (designated by ΔC% and represented by dashed grey lines) are illustrated for MCF-7 cells seeded on SiNW electrodes after treating by 2.1 nano-moles per liter of ABZ and 0.1 nano-moles per liter of PTX. The time interval between the drug incubation and the signal extraction are 2 hours (designated by T1) and 6 hours (designated by T2). In addition, the same diagrams are plotted for control sample prepared with no drug treatment stage.
According to the method described in the present example, the samples were maintained in an incubator so that the signal extraction was repeated 10 hours after cells dropping (6 hours after drug incubation for treated samples) to monitor the time evolution of drug induced MT polymerization/depolymerization on bioelectrical response of the membrane.

[2] = system: tubulin assemblies of MCF-7 cells; experiment: Confocal microscopy of tubulin assemblies of MCF-7 cells; assay type: cell-based, human; conditions: ABZ 2.1 nano-moles per liter, PTX 0.1 nano-moles per liter
Experimental: In addition, an un-treated control sample was prepared as reference for comparison. Then, samples were washed with PBS and permeabilized with microtubule stabilizing buffer [80 mM PIPES-KOH (pH 6.8), 5 mM EGTA, and 1 mM MgCl2 containing 0.5% Triton X-100] for 5 min at room temperature before being fixed with chilled absolute methanol for 10 min at −20° C. Thereafter, the fixed cells were washed and incubated with monoclonal mouse anti-α-tubulin antibody (Sigma Co.) for 1 hour at room temperature followed by incubation with FITC-conjugated antimouse IgG antibody (Santa Cruz Biotechnology). The stained cells were mounted with Vectashield (Vector Laboratories, Burlingame, Calif.) and observed by confocal microscopy.

[3] = between 2 hours (T1) and 6 hours (T2) after drug incubation

SMILES | normalized capacitance change versus control sample [1] | normalized impedance change versus control sample [1] | change in electrical impedance with respect to control sample [1] | norm of capacitive changes, control sample more than drug value [1] | change of norm in impedance of treated cells, T1 vs. T2 [1, 3] | spindle / microtubule appearance in confocal image ([2]; MCF-7, 2 hours after treatment) | spindle / microtubule appearance in confocal image ([2]; MCF-7, 6 hours after treatment) | time dependent variation in capacitive behavior, T1 vs. T2 [1, 3]
CCCSc1ccc2nc(NC(=O)OC)[nH]c2c1 [ABZ, Albendazole] | 70% | 25% | about 90% | about 90% | about 60% | abnormally reduced numbers of spindles or monopolar (monoaster) spindles | still the monoastered MTs are observable | 
CC(=O)O[C@H]1C(=O)[C@@]2(C)[C@H]([C@H](OC(=O)c3ccccc3)[C@]3(O)C[C@H](OC(=O)[C@H](O)[C@@H](NC(=O)c4ccccc4)c4ccccc4)C(C)=C1C3(C)C)[C@]1(OC(C)=O)CO[C@@H]1C[C@@H]2O [PTX, Paclitaxel] | about 60% | about 50% | about 30% | ~75% | 15% | aggregated spindles | increased aggregation in MT spindles is noticeable | about 85%
